Key:
stress ulcer = assay: Inhibition on stress ulcer (water-bath immobilization); format: in vivo, Sprague-Dawley rats; settings: 32 mg/kg, oral, just before immobilization; 7 hours; rats
Experimental: INHIBITION ON STRESS ULCER
Five Sprague-Dawley rats weighing about 200 g were used per group. Each animal was immobilized in a small cage and put in a water bath allowing to respire. The temperature of the water bath kept at 22° C. The test compound was administered orally just before the immobilization. Seven hours later, the animals were sacrificed and their stomachs were removed. The stomach was then fixed with 2% formalin. The area of ulcers was measured for each animal. The mean area (mm^2) in the medicated animals was compared with that in the control animals.

[1] = test system: gastrin-stimulated acid secretion; assay: Effect on gastrin-stimulated acid secretion in Heidenhain pouch dogs; format: in vivo; settings: 3.2 mg/kg, oral, tetragastrin 10 μg/kg/hr infusion, gastric juice collected 3 hr after drug
Experimental: EFFECT ON GASTRIN-STIMULATED ACID SECRETION IN HEIDENHAIN POUCH DOGS
Dogs equipped with Heidenhain pouches were placed on tables and restrained minimally in pavlov slings. Gastrin(tetragastrin) in 0.9% saline was continuously infused through the cephalic vein at a dose of 10 μg/kg/hr over a 5- to 6-hr period in a volume of 0.1 ml/kg/min. After acid secretion had reached a plateau (usually within 2 hr), drug was given orally in a volume of 1 ml/kg. Gastric juice was collected at 15 min intervals for 1 hr before and for 3 hr after drug administration. The volume of each sample was determined, and an aliquot was titrated to pH 7.0 with 0.1M NaOH. Acid output was expressed as μEq H^+ /15 min. The effect of drug was described as percent drug-induced change in acid secretion.

C#CCc1c(C)nc2c(NCc3c(C)cccc3NC(=O)OC)cccn12 [(1), 8-(2-Methyl-6-methoxycarbonylaminobenzylamino)-3-(2-propynyl)-2-methylimidazo[1,2-a]pyridine]
Inhibition % (area of ulcers) (stress ulcer): 100%
Maximum inhibition % (acid secretion) [1]: 100%

Reference: patent US4920129A, “Anti-ulcerative imidazopyridine compounds” (Fujisawa Pharmaceutical Company, Ltd., priority 1987, dated 1990)
